Test results: paper PMC6273912, “Novel 5-Substituted 2-(Aylmethylthio)-4-chloro-N-(5-aryl-1,2,4-triazin-3-yl)benzenesulfonamides: Synthesis, Molecular Structure, Anticancer Activity, Apoptosis-Inducing Activity and Metabolic Stability” (Molecules, 2016)

Key:
[1] = Metabolic stability with human liver microsomes and NADPH; format: in vitro ADME; settings: liver microsomes, pH 7.4, human liver microsomes 0.5 mg/mL, 1 mM NADPH, 10 μM compound, pH 7.4, 37 °C, up to 60 min, read-out: In Vitro Metabolic Half-Life t1/2
Experimental: Stock solutions of studied compounds were prepared at concentration of 10 mM in DMSO. […] Incubation mixture contained 10 μM of a studied derivative, 1 mM of NADPH (Sigma-Aldrich) and 0.5 mg/mL of human liver microsomes (HLM, Sigma-Aldrich) in potassium phosphate buffer (0.1 M, pH 7.4). Incubation was carried out in thermostat at 37 °C and started by addition of studied compound. 50 μL samples were taken after 5, 15, 30, 45 and 60 min. Enzymatic reaction was terminated by the addition of the equal volume of ice-cold acetonitrile containing 10 μM of alprazolam (Sigma-Aldrich) serving as internal standard (IS). Control incubations were performed without NADPH to assess chemical instability. After collection, samples were immediately centrifuged (10 min, 10,000 rpm) and resulted supernatant was directly analyzed or kept in −80 °C until LC-MS analysis. Natural logarithm of a compound over IS peak area ratio was plotted versus incubation time. Metabolic half-time (t1/2) was calculated from the slope of the linear regression, as reported in [48].
LC-MS analysis was performed on an Agilent 1260 system coupled to SingleQuad 6120 mass spectrometer (Agilent Technologies, Santa Clara, CA, USA). Ascentis Express ES-CN (2.1 mm × 100 mm, 2.7 μm, Supelco Analytical, Bellefonte, PA, USA) was used in reversed-phase mode with gradient elution starting with 50% of phase A (10 mM ammonium formate in water) and 50% of phase B (10 mM ammonium formate in acetonitrile-water mixture, 95:5 v/v). […] Total analysis time was 10 min at 25 °C, flow rate was 0.4 mL/min and the injection volume was 20 μL. The mass spectrometer was equipped with electrospray ion source and operated in positive ionization. Mass analyzer was set individually to each compound to detect [M + H]^+ pseudomolecular ions. MSD parameters of the ESI source were as follows: nebulizer pressure 50 psig (N2), drying gas […] (N2), drying gas temperature 300 °C, capillary voltage 3.5 kV, fragmentor voltage 100 V.

MCF-7 (breast cancer) = experiment: MTT cell viability assay, MCF-7; format: cell-based, human; settings: Homo sapiens, MCF7, 72 h of incubation, mean ± SD
Experimental: All chemicals, if not stated otherwise, were obtained from Sigma-Aldrich (St. Louis, MO, USA). The MCF-7 cell line was purchased from Cell Lines Services (Eppelheim, Germany), the HeLa and HCT-116 cell lines were obtained from the Department of Microbiology, Tumor and Cell Biology, Karolinska Institute (Stockholm, Sweden). Cells were cultured in Dulbecco’s modified Eagle’s medium (DMEM) supplemented with 10% fetal bovine serum, 2 mM glutamine, 100 units/mL penicillin, and 100 μg/mL streptomycin. Cultures were maintained in a humidified atmosphere with 5% CO2 at 37 °C in an incubator (HeraCell, Heraeus, Langenselbold, Germany).
Cell viability was determined using the MTT (3-(4,5-dimethylthiazol-2-yl)-2,5-diphenyl-tetrazoliumbromide) assay. Stock solutions of the studied compounds were prepared in 100% DMSO. […] Cells were seeded in 96-well plates at a density of 5 × 10^3 cells/well and treated for 72 h with the examined compounds in the concentration range 1–100 μM (1, 10, 25, 50 and 100 μM). Following treatment, MTT (0.5 mg/mL) was added to the medium and cells were further incubated for 2 h at 37 °C. Cells were lysed with DMSO and the absorbance of the formazan solution was measured at 550 nm with a plate reader (1420 multilabel counter, Victor, Jügesheim, Germany). […] The experiment was performed in triplicate. Values are expressed as the mean ± SD of at least three independent experiments.

half-life at 10 μM [1]: 32.8 min | IC50 (MCF-7 (breast cancer)): 70 ± 3 µM
SMILES: Cc1cc(S(=O)(=O)Nc2nncc(-c3ccc(C(F)(F)F)cc3)n2)c(SCc2cccc3ccccc23)cc1Cl [Compound 37, 4-Chloro-5-methyl-2-[(naphthalene-1-yl)methylthio]-N-[5-(4-trifluoromethylphenyl)-1,2,4-triazin-3-yl]-benzenesulfonamide]
